According to US10603261B2, “Composition for enhancing hair fiber properties” (The Procter & Gamble Company, priority 2014, dated 2020):

Test: Combing force after leave-on hair treatment using neat material
Details: hair treated with neat material; 1 and 5 washes
Text: This double combing apparatus is attached to an Instron Model 5564. The switch is combed 5 times with a fine-tooth comb and hanged onto the Instron load cell. Then, the hair switch is placed in the double comb apparatus. The Instron pulls the hair vertically at a rate of 10 mm/min until the hair switch clears the final comb. The peak force as the switch passes through the top comb is reported.
The treatment is repeated to two additional switches. The treated hair switches are allowed to rest for 24 hours under controlled temperature and relative humidity conditions (27° C. and 50% RH). After this time period, each hair switch is washed with a clarifying shampoo (see shampoo washing protocol below) and allowed to air dry for 24 hours under controlled temperature and relative humidity conditions (27° C. and 50% RH). The combing force is measured for each switch and an average for the three switches is calculated. […] Linoleic acid • b.
Each application consists of adding shampoo to the hair, milking for 30 seconds followed by rinsing for 30 seconds. Shampoo is then reapplied (0.1 g/g), milked for 30 seconds and rinsed for 30 seconds.

CCCCCCCC/C=C\CCCCCCCC(=O)O [Oleic acid]
combability (in words): better combability
